The Kd is the constant that tells how readily two partners part at equilibrium.

Data set [1] concerns Jurkat. The experiment in a line: Cellular uptake in human Jurkat cells at 7 to 120 uM after 15 mins by 6-carboxyfluorescein staining-based flow cytometry. Type of data set: ADME, cell-based. To be noted: 0.25 h.
The test system of data set [2] is Jurkat. Briefly: Cytotoxicity against human Jurkat cells assessed as cell viability at 120 uM after 4 hrs by WST-1 assay. Type of data set: cell-based. For orientation: Formazan colour is commonly taken as a measure of viable cells.
The next data set relates to Nucleic Acid. The experiment in a line: Binding affinity to HIV TAR RNA by electrophoretic mobility shift assay in presence of Escherichia coli tRNA. Type of data set: nucleic-acid assay, Human immunodeficiency virus. On the technique in general: In EMSA bound probe runs differently from free probe, usually more slowly.

The structures appear in SMILES notation.

Turning to `CNC(=N)NCCC[C@H](NC(=O)[C@H](CCC(N)=O)NC(=O)[C@H](CCCNC(=N)N)NC(=O)[C@H](CCCNC(=N)N)NC(=O)[C@H](CCCCN)NC(=O)[C@H](CCCCN)NC(=O)[C@H](CCCNC(=N)N)NC(=O)CNC(=O)[C@H](Cc1ccc(O)cc1)NC(=O)CCNC(=O)c1ccc2c(c1)C1(OC2=O)c2ccc(O)cc2Oc2cc(O)ccc21)C(=O)N[C@@H](CCCNC(=N)N)C(=O)N[C@@H](CCCNC(=N)N)C(N)=O`, the Drug uptake entry in the data set on Jurkat [1] is reported as “Active”. `CNC(=N)NCCC[C@H](NC(=O)CNC(=O)[C@H](Cc1ccc(O)cc1)NC(C)=O)C(=O)N[C@@H](CCCCN)C(=O)N[C@@H](CCCCN)C(=O)N[C@@H](CCCNC(=N)N)C(=O)N[C@@H](CCCNC(=N)N)C(=O)N[C@@H](CCC(N)=O)C(=O)N[C@@H](CCCNC(=N)N)C(=O)N[C@@H](CCCNC(=N)N)C(=O)N[C@@H](CCCNC(=N)N)C(N)=O`: the Activity entry with Jurkat [2] was “Non-toxic”. For the same molecule, the Kd with Nucleic Acid is 285 nM. As to `C/N=C(\NC)NCCC[C@H](NC(=O)[C@H](CCCNC(=N)N)NC(=O)[C@H](CCC(N)=O)NC(=O)[C@H](CCCNC(=N)N)NC(=O)[C@H](CCCNC(=N)N)NC(=O)[C@H](CCCCN)NC(=O)[C@H](CCCCN)NC(=O)[C@H](CCCNC(=N)N)NC(=O)CNC(=O)[C@H](Cc1ccc(O)cc1)NC(=O)CCNC(=O)c1ccc2c(c1)C1(OC2=O)c2ccc(O)cc2Oc2cc(O)ccc21)C(=O)N[C@@H](CCCNC(=N)N)C(N)=O`, the Drug uptake result in the data set on Jurkat [1] is given as “Active”. On to `C/N=C(\NC)NCCC[C@H](NC(=O)[C@H](CCCNC(=N)N)NC(=O)[C@H](CCC(N)=O)NC(=O)[C@H](CCCNC(=N)N)NC(=O)[C@H](CCCNC(=N)N)NC(=O)[C@H](CCCCN)NC(=O)[C@H](CCCCN)NC(=O)[C@H](CCCNC(=N)N)NC(=O)CNC(=O)[C@H](Cc1ccc(O)cc1)NC(C)=O)C(=O)N[C@@H](CCCNC(=N)N)C(N)=O`, for which, in the data set with Jurkat [2], the Activity result is given as “Non-toxic”. Further, in the data set on Nucleic Acid, the Kd is 317 nM. Turning to `CN(C)C(=N)NCCC[C@H](NC(=O)[C@H](CCCNC(=N)N)NC(=O)[C@H](CCCNC(=N)N)NC(=O)[C@H](CCC(N)=O)NC(=O)[C@H](CCCNC(=N)N)NC(=O)[C@H](CCCNC(=N)N)NC(=O)[C@H](CCCCN)NC(=O)[C@H](CCCCN)NC(=O)[C@H](CCCNC(=N)N)NC(=O)CNC(=O)[C@H](Cc1ccc(O)cc1)NC(=O)CCNC(=O)c1ccc2c(c1)C1(OC2=O)c2ccc(O)cc2Oc2cc(O)ccc21)C(N)=O`, the Drug uptake entry in the data set with Jurkat [1] was “Active”. `C/N=C(\NC)NCCC[C@H](NC(=O)[C@H](CCCNC(=N)N)NC(=O)[C@H](CCCNC(=N)N)NC(=O)[C@H](CCC(N)=O)NC(=O)[C@H](CCCNC(=N)N)NC(=O)[C@H](CCCNC(=N)N)NC(=O)[C@H](CCCCN)NC(=O)[C@H](CCCCN)NC(=O)[C@H](CCCNC(=N)N)NC(=O)CNC(=O)[C@H](Cc1ccc(O)cc1)NC(=O)CCNC(=O)c1ccc2c(c1)C1(OC2=O)c2ccc(O)cc2Oc2cc(O)ccc21)C(N)=O`: the Drug uptake entry in the data set with Jurkat [1] is given as “Active”. The same measure, in the same setting: the value for `CN(C)C(=N)NCCC[C@H](NC(=O)[C@H](CCCCN)NC(=O)[C@H](CCCCN)NC(=O)[C@H](CCCNC(=N)N)NC(=O)CNC(=O)[C@H](Cc1ccc(O)cc1)NC(=O)CCNC(=O)c1ccc2c(c1)C1(OC2=O)c2ccc(O)cc2Oc2cc(O)ccc21)C(=O)N[C@@H](CCCNC(=N)N)C(=O)N[C@@H](CCC(N)=O)C(=O)N[C@@H](CCCNC(=N)N)C(=O)N[C@@H](CCCNC(=N)N)C(=O)N[C@@H](CCCNC(=N)N)C(N)=O` was “Active”; that for `CNC(=N)NCCC[C@H](NC(=O)CNC(=O)[C@H](Cc1ccc(O)cc1)NC(=O)CCNC(=O)c1ccc2c(c1)C1(OC2=O)c2ccc(O)cc2Oc2cc(O)ccc21)C(=O)N[C@@H](CCCCN)C(=O)N[C@@H](CCCCN)C(=O)N[C@@H](CCCNC(=N)N)C(=O)N[C@@H](CCCNC(=N)N)C(=O)N[C@@H](CCC(N)=O)C(=O)N[C@@H](CCCNC(=N)N)C(=O)N[C@@H](CCCNC(=N)N)C(=O)N[C@@H](CCCNC(=N)N)C(N)=O` was “Active”. On the same count and under the same terms, the value for `C/N=C(\NC)NCCC[C@H](NC(=O)[C@H](CCCNC(=N)N)NC(=O)[C@H](CCCCN)NC(=O)[C@H](CCCCN)NC(=O)[C@H](CCCNC(=N)N)NC(=O)CNC(=O)[C@H](Cc1ccc(O)cc1)NC(=O)CCNC(=O)c1ccc2c(c1)C1(OC2=O)c2ccc(O)cc2Oc2cc(O)ccc21)C(=O)N[C@@H](CCC(N)=O)C(=O)N[C@@H](CCCNC(=N)N)C(=O)N[C@@H](CCCNC(=N)N)C(=O)N[C@@H](CCCNC(=N)N)C(N)=O` was “Active”; that for `CN(C)C(=N)NCCC[C@H](NC(=O)[C@H](CCC(N)=O)NC(=O)[C@H](CCCNC(=N)N)NC(=O)[C@H](CCCNC(=N)N)NC(=O)[C@H](CCCCN)NC(=O)[C@H](CCCCN)NC(=O)[C@H](CCCNC(=N)N)NC(=O)CNC(=O)[C@H](Cc1ccc(O)cc1)NC(=O)CCNC(=O)c1ccc2c(c1)C1(OC2=O)c2ccc(O)cc2Oc2cc(O)ccc21)C(=O)N[C@@H](CCCNC(=N)N)C(=O)N[C@@H](CCCNC(=N)N)C(N)=O` was “Active”; that for `C/N=C(\NC)NCCC[C@H](NC(=O)[C@H](CCC(N)=O)NC(=O)[C@H](CCCNC(=N)N)NC(=O)[C@H](CCCNC(=N)N)NC(=O)[C@H](CCCCN)NC(=O)[C@H](CCCCN)NC(=O)[C@H](CCCNC(=N)N)NC(=O)CNC(=O)[C@H](Cc1ccc(O)cc1)NC(=O)CCNC(=O)c1ccc2c(c1)C1(OC2=O)c2ccc(O)cc2Oc2cc(O)ccc21)C(=O)N[C@@H](CCCNC(=N)N)C(=O)N[C@@H](CCCNC(=N)N)C(N)=O` was “Active”.

With `CNC(=N)NCCC[C@H](NC(=O)[C@H](CCCNC(=N)N)NC(=O)[C@H](CCC(N)=O)NC(=O)[C@H](CCCNC(=N)N)NC(=O)[C@H](CCCNC(=N)N)NC(=O)[C@H](CCCCN)NC(=O)[C@H](CCCCN)NC(=O)[C@H](CCCNC(=N)N)NC(=O)CNC(=O)[C@H](Cc1ccc(O)cc1)NC(=O)CCNC(=O)c1ccc2c(c1)C1(OC2=O)c2ccc(O)cc2Oc2cc(O)ccc21)C(=O)N[C@@H](CCCNC(=N)N)C(N)=O`, the Drug uptake result in the data set on Jurkat [1] is listed as “Active”. Still for that read-out and setting: the value for `C/N=C(\NC)NCCC[C@H](NC(=O)[C@H](CCCCN)NC(=O)[C@H](CCCCN)NC(=O)[C@H](CCCNC(=N)N)NC(=O)CNC(=O)[C@H](Cc1ccc(O)cc1)NC(=O)CCNC(=O)c1ccc2c(c1)C1(OC2=O)c2ccc(O)cc2Oc2cc(O)ccc21)C(=O)N[C@@H](CCCNC(=N)N)C(=O)N[C@@H](CCC(N)=O)C(=O)N[C@@H](CCCNC(=N)N)C(=O)N[C@@H](CCCNC(=N)N)C(=O)N[C@@H](CCCNC(=N)N)C(N)=O` was “Active”; that for `CN(C)C(=N)NCCC[C@H](NC(=O)CNC(=O)[C@H](Cc1ccc(O)cc1)NC(=O)CCNC(=O)c1ccc2c(c1)C1(OC2=O)c2ccc(O)cc2Oc2cc(O)ccc21)C(=O)N[C@@H](CCCCN)C(=O)N[C@@H](CCCCN)C(=O)N[C@@H](CCCNC(=N)N)C(=O)N[C@@H](CCCNC(=N)N)C(=O)N[C@@H](CCC(N)=O)C(=O)N[C@@H](CCCNC(=N)N)C(=O)N[C@@H](CCCNC(=N)N)C(=O)N[C@@H](CCCNC(=N)N)C(N)=O` was “Active”; that for `CNC(=N)NCCC[C@H](NC(=O)[C@H](CCCNC(=N)N)NC(=O)[C@H](CCCCN)NC(=O)[C@H](CCCCN)NC(=O)[C@H](CCCNC(=N)N)NC(=O)CNC(=O)[C@H](Cc1ccc(O)cc1)NC(=O)CCNC(=O)c1ccc2c(c1)C1(OC2=O)c2ccc(O)cc2Oc2cc(O)ccc21)C(=O)N[C@@H](CCC(N)=O)C(=O)N[C@@H](CCCNC(=N)N)C(=O)N[C@@H](CCCNC(=N)N)C(=O)N[C@@H](CCCNC(=N)N)C(N)=O` was “Active”.

Turning to `CNC(=N)NCCC[C@H](NC(=O)[C@H](CCCCN)NC(=O)[C@H](CCCCN)NC(=O)[C@H](CCCNC(=N)N)NC(=O)CNC(=O)[C@H](Cc1ccc(O)cc1)NC(=O)CCNC(=O)c1ccc2c(c1)C1(OC2=O)c2ccc(O)cc2Oc2cc(O)ccc21)C(=O)N[C@@H](CCCNC(=N)N)C(=O)N[C@@H](CCC(N)=O)C(=O)N[C@@H](CCCNC(=N)N)C(=O)N[C@@H](CCCNC(=N)N)C(=O)N[C@@H](CCCNC(=N)N)C(N)=O`, in the data set with Jurkat [1], the Drug uptake result is “Active”. The same measure, in the same setting: as for `CNC(=N)NCCC[C@H](NC(=O)[C@H](CCCNC(=N)N)NC(=O)[C@H](CCCNC(=N)N)NC(=O)[C@H](CCC(N)=O)NC(=O)[C@H](CCCNC(=N)N)NC(=O)[C@H](CCCNC(=N)N)NC(=O)[C@H](CCCCN)NC(=O)[C@H](CCCCN)NC(=O)[C@H](CCCNC(=N)N)NC(=O)CNC(=O)[C@H](Cc1ccc(O)cc1)NC(=O)CCNC(=O)c1ccc2c(c1)C1(OC2=O)c2ccc(O)cc2Oc2cc(O)ccc21)C(N)=O`, the entry is “Active”. With `CN(C)C(=N)NCCC[C@H](NC(=O)[C@H](CCCNC(=N)N)NC(=O)[C@H](CCC(N)=O)NC(=O)[C@H](CCCNC(=N)N)NC(=O)[C@H](CCCNC(=N)N)NC(=O)[C@H](CCCCN)NC(=O)[C@H](CCCCN)NC(=O)[C@H](CCCNC(=N)N)NC(=O)CNC(=O)[C@H](Cc1ccc(O)cc1)NC(=O)CCNC(=O)c1ccc2c(c1)C1(OC2=O)c2ccc(O)cc2Oc2cc(O)ccc21)C(=O)N[C@@H](CCCNC(=N)N)C(N)=O`, in the data set with Jurkat [1], the Drug uptake entry was “Active”. Regarding `N=C(N)NCCC[C@H](NC(=O)[C@H](CCCNC(=N)N)NC(=O)[C@H](CCCNC(=N)N)NC(=O)[C@H](CCC(N)=O)NC(=O)[C@H](CCCNC(=N)N)NC(=O)[C@H](CCCNC(=N)N)NC(=O)[C@H](CCCCN)NC(=O)[C@H](CCCCN)NC(=O)[C@H](CCCNC(=N)N)NC(=O)CNC(=O)[C@H](Cc1ccc(O)cc1)NC(=O)CCNC(=O)c1ccc2c(c1)C1(OC2=O)c2ccc(O)cc2Oc2cc(O)ccc21)C(N)=O`, the Drug uptake result in the data set on Jurkat [1] is recorded as “Active”. In the case of `CN(C)C(=N)NCCC[C@H](NC(=O)[C@H](CCCNC(=N)N)NC(=O)[C@H](CCCCN)NC(=O)[C@H](CCCCN)NC(=O)[C@H](CCCNC(=N)N)NC(=O)CNC(=O)[C@H](Cc1ccc(O)cc1)NC(=O)CCNC(=O)c1ccc2c(c1)C1(OC2=O)c2ccc(O)cc2Oc2cc(O)ccc21)C(=O)N[C@@H](CCC(N)=O)C(=O)N[C@@H](CCCNC(=N)N)C(=O)N[C@@H](CCCNC(=N)N)C(=O)N[C@@H](CCCNC(=N)N)C(N)=O`, in the data set with Jurkat [1], the Drug uptake entry is listed as “Active”. Consider `C/N=C(\NC)NCCC[C@H](NC(=O)CNC(=O)[C@H](Cc1ccc(O)cc1)NC(=O)CCNC(=O)c1ccc2c(c1)C1(OC2=O)c2ccc(O)cc2Oc2cc(O)ccc21)C(=O)N[C@@H](CCCCN)C(=O)N[C@@H](CCCCN)C(=O)N[C@@H](CCCNC(=N)N)C(=O)N[C@@H](CCCNC(=N)N)C(=O)N[C@@H](CCC(N)=O)C(=O)N[C@@H](CCCNC(=N)N)C(=O)N[C@@H](CCCNC(=N)N)C(=O)N[C@@H](CCCNC(=N)N)C(N)=O`, for which the Drug uptake entry in the data set on Jurkat [1] is recorded as “Active”.

Source of the values: ChEMBL document CHEMBL3400097, “Effect of arginine methylation on the RNA recognition and cellular uptake of Tat-derived peptides” (Bioorg Med Chem, 2015).
